Data taken from ChEMBL document CHEMBL1130574, “5-HT1A and 5-HT2A ligands with anxiolytic and antipanic-like properties” (Bioorg Med Chem Lett, 1997).
Activity calls are given as the source filed them. The rule behind the calls is not given here.

How the values were obtained:
[1] = molecular target: 5-hydroxytryptamine receptor 2A (Rattus norvegicus, UniProt P14842); assay: Binding affinity for 5-hydroxytryptamine 2A receptor in rat cortex using [3H]ketanserin; format: tissue-based
Mus musculus [2] = assay: 5-HT2 antagonist activity was assessed by the ability of compound to antagonise 5-HTP induced head twitches at 45 mg/Kg administered perorally in mice; format: functional; settings: po
Mus musculus [3] = assay: 5-HT2 antagonist activity was assessed by the ability of compound to antagonise mescaline induced scratching at 8 mg/Kg administered perorally in mice; format: functional; settings: po
Mus musculus [4] = assay: 5-HT2 antagonist activity was assessed by the ability of compound to antagonise 5-HTP induced head twitches at 128 mg/Kg administered perorally in mice; format: functional; settings: po
[5] = molecular target: T1, 5-hydroxytryptamine receptor 2C (Rattus norvegicus, UniProt P08909); assay: Binding affinity against 5-hydroxytryptamine 2C receptor in rat choroid plexus using [3H]N-methyl-mesulergine
T1 sequence (P08909 whole entry): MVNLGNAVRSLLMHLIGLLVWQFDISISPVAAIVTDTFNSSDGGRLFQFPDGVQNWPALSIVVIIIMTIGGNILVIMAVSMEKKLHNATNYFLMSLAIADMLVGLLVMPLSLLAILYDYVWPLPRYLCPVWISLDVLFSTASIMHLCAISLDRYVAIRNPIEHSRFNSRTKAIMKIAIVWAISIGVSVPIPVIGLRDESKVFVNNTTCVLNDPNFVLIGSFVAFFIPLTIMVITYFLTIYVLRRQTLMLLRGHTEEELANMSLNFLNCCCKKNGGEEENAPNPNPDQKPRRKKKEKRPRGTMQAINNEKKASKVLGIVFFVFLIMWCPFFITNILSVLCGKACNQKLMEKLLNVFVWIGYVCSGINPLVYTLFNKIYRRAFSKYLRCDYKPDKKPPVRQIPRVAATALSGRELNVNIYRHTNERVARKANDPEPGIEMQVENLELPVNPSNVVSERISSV

D(2) dopamine receptor = D(2) dopamine receptor (Rattus norvegicus, UniProt P61169); assay: Binding affinity against D2 receptor in rat striatum using [3H]raclopride; format: tissue-based
D(2) dopamine receptor, sequence (P61169 whole entry): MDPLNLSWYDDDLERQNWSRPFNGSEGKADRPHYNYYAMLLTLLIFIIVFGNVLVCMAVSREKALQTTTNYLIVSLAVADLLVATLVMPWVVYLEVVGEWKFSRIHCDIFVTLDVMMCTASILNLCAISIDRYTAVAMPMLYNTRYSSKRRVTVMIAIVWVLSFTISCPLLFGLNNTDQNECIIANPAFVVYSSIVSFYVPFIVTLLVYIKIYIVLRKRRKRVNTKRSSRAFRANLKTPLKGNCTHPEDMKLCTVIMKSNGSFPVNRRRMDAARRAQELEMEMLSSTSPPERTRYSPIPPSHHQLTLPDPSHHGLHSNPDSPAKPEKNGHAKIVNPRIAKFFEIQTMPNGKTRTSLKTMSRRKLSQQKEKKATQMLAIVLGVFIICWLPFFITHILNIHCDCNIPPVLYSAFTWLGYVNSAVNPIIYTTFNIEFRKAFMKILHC

Mus musculus [6] = assay: 5-HT2 antagonist activity was assessed by the ability of compound to antagonise mescaline induced scratching at 32 mg/Kg administered perorally in mice; format: functional; settings: po
[7] = molecular target: T2, 5-hydroxytryptamine receptor 1A (Rattus norvegicus, UniProt P19327); assay: Binding affinity against 5-hydroxytryptamine 1A receptor of rat hippocampus using [3H]8-OH-DPAT; format: tissue-based
T2 sequence (P19327 whole entry): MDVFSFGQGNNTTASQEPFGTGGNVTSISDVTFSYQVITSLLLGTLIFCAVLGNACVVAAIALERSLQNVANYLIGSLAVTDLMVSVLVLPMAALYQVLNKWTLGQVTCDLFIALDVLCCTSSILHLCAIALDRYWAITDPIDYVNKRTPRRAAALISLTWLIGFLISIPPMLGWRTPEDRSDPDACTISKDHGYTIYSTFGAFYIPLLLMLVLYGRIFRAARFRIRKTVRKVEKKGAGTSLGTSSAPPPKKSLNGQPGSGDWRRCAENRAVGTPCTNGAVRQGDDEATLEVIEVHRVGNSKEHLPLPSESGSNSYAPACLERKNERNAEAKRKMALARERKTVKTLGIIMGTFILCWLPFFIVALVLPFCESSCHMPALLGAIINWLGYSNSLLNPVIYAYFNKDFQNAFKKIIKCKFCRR

[8] = molecular target: T3, Adrenergic receptor alpha-1 (Rattus norvegicus, UniProt P15823+P23944+P43140); assay: Binding affinity against Alpha-1 adrenergic receptor in rat cortex using [3H]prazosin; format: tissue-based, Brain
T3 sequence (P15823 whole entry): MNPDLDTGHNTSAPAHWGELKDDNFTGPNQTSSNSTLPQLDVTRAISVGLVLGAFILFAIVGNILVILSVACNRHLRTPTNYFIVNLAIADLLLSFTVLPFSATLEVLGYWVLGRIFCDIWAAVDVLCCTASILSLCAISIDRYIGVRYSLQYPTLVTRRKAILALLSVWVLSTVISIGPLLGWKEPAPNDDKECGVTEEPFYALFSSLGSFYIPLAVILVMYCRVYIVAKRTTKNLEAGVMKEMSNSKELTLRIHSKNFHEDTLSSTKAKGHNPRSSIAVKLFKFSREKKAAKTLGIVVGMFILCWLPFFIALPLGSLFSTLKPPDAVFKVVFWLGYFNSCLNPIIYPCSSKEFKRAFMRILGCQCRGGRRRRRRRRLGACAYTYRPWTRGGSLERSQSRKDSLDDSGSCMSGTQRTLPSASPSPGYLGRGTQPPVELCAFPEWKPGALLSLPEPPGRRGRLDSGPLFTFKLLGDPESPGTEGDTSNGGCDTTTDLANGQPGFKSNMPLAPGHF
T3 sequence (P23944 whole entry): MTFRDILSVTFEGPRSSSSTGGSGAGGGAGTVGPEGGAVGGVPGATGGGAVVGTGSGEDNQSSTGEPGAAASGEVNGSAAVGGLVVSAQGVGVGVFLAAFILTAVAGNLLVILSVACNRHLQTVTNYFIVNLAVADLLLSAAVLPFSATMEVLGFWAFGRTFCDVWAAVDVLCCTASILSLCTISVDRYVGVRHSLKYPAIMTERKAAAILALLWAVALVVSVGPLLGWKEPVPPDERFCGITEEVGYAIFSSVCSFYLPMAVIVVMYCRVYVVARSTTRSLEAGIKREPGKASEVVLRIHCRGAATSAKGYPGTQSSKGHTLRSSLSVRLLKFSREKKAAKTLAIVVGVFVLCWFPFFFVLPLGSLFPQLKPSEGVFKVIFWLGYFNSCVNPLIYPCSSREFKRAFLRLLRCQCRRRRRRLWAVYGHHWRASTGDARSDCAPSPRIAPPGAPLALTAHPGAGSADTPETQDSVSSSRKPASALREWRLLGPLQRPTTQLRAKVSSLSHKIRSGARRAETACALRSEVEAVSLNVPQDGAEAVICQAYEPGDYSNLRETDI
T3 sequence (P43140 whole entry): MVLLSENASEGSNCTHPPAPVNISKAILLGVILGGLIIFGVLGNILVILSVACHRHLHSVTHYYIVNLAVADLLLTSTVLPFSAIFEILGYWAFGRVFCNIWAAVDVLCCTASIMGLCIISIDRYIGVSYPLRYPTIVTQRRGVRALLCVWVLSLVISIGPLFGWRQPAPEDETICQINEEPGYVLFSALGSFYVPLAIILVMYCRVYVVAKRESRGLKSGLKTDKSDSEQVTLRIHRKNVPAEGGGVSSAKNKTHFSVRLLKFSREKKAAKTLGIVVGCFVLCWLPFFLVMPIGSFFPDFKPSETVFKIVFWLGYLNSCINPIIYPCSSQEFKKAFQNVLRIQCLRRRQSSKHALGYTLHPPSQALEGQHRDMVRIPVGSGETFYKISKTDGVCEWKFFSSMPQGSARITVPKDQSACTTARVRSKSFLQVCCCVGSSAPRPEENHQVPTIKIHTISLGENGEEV

Mus musculus [9] = assay: 5-HT2 antagonist activity was assessed by the ability of compound to antagonise 5-HTP induced head twitches at 4 mg/Kg administered intraperitoneally in mice; Inactive; format: functional, organism-based
Mus musculus [10] = assay: Compound was tested for sedative activity in mice at the dose of 4 mg/kg perorally; active; format: functional, organism-based; parameters: dose 4 mg/kg
Mus musculus [11] = assay: 5-HT2 antagonist activity was assessed by the ability of compound to antagonise mescaline induced scratching at 16 mg/Kg administered intraperitoneally in mice; Inactive; format: functional, organism-based

5-hydroxytryptamine receptor 2A, sequence (P14842 whole entry): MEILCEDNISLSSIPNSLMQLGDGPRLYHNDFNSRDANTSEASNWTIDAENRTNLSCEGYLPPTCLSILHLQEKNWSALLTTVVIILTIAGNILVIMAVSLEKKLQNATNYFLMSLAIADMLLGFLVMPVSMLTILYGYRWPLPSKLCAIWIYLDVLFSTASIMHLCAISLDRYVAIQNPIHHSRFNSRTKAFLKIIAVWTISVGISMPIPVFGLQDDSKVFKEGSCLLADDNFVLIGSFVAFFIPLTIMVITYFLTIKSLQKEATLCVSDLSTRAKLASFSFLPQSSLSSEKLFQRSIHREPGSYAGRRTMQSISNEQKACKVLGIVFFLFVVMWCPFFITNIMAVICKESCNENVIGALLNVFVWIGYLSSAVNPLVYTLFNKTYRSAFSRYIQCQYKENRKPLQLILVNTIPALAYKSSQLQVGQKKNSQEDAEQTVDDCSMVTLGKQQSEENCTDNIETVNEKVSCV

Row | SMILES | Ki [1] [nM] | Ki [5] [nM] | Ki (D(2) dopamine receptor) [nM] | Ki [7] [nM] | Ki [8] [nM] | inhibition in vivo at 45 mg/kg (Mus musculus [2]) [%] | inhibition in vivo at 8 mg/kg (Mus musculus [3]) [%] | inhibition in vivo at 128 mg/kg (Mus musculus [4]) [%] | inhibition in vivo at 32 mg/kg (Mus musculus [6]) [%] | Activity (Mus musculus [9]) | Activity (Mus musculus [10]) | Activity (Mus musculus [11])
1 | COc1ccccc1N1CCN(CCCCc2ccc3c(c2)sc(=O)n3CCN2CCC(C(=O)c3ccc(F)cc3)CC2)CC1 | 2 | 240 | 1.2 | 7 | 5 | 50 | 86 | 90 | 70 | – | – | –
2 | COc1ccccc1N1CCN(CCCCc2ccc3c(c2)oc(=O)n3CCN2CCC(=C(c3ccc(F)cc3)c3ccc(F)cc3)CC2)CC1 | 335 | 460 | 3 | 98 | 5 | – | – | – | – | – | – | –
3 | COc1ccccc1N1CCN(CCCCc2ccc3c(c2)OCC(=O)N3CCN2CCC(C(=O)c3ccc(F)cc3)CC2)CC1 | 14 | 30 | 0.06 | 18 | 2 | – | – | – | – | – | – | –
4 | COc1ccccc1N1CCN(CCCCc2ccc3c(c2)oc(=O)n3CCN2CCC(C(=O)c3ccc(F)cc3)CC2)CC1 | 16 | 75 | 0.5 | 2 | – | – | – | – | – | – | – | –
5 | COc1ccccc1N1CCN(CCc2ccc3c(c2)sc(=O)n3CCN2CCC(C(=O)c3ccc(F)cc3)CC2)CC1 | 20 | 50 | 5 | 6000 | 1 | – | – | – | – | – | – | –
6 | COc1ccccc1N1CCN(CCCCc2ccc3c(c2)OCC(=O)N3CCN2CCC(=C(c3ccc(F)cc3)c3ccc(F)cc3)CC2)CC1 | 120 | 250 | 1.4 | 49 | 13 | – | – | – | – | – | – | –

Continued, in another order:

Row | Ki [1] [nM] | Ki [5] [nM] | Ki (D(2) dopamine receptor) [nM] | Ki [7] [nM] | Ki [8] [nM] | SMILES | inhibition in vivo at 45 mg/kg (Mus musculus [2]) [%] | inhibition in vivo at 8 mg/kg (Mus musculus [3]) [%] | inhibition in vivo at 128 mg/kg (Mus musculus [4]) [%] | inhibition in vivo at 32 mg/kg (Mus musculus [6]) [%] | Activity (Mus musculus [9]) | Activity (Mus musculus [10]) | Activity (Mus musculus [11])
7 | 0.6 | 20 | 100 | 700 | 40 | O=C(c1ccc(F)cc1)C1CCN(CCn2c(=O)sc3cc(CCCCN4CCOCC4)ccc32)CC1 | – | – | – | – | inactive | Active | inactive
8 | 7 | 110 | 5 | 5 | 5 | COc1ccccc1N1CCN(CCCCc2ccc3c(c2)sc(=O)n3CCN2CCC(=C(c3ccc(F)cc3)c3ccc(F)cc3)CC2)CC1 | – | – | – | – | – | – | –
9 | 50 | > 10000 | 30 | 70 | 1000 | O=C(c1ccc(F)cc1)C1CCN(CCn2c(=O)sc3cc(CCCCN4CCN(c5cccc(C(F)(F)F)c5)CC4)ccc32)CC1 | – | – | – | – | – | – | –
10 | 2 | 70 | 2 | 3 | – | COc1ccccc1N1CCN(CCCc2ccc3c(c2)sc(=O)n3CCN2CCC(C(=O)c3ccc(F)cc3)CC2)CC1 | – | – | – | – | – | – | –
